# Source: patent publication US20230085307A1, “PYRIDAZINONE COMPOUND AND HERBICIDE” (NISSAN CHEMICAL CORPORATION, priority 2019, published 2023)
# Columns and labels:
# velvetleaf = assay: Test Example 5: herbicidal effect by foliage application, plastic box (Table 20, symbol M); assay type: in vivo, velvetleaf (Abutilon theophrasti); settings: foliage application, AAH 320 g/ha, evaluated three weeks after application
# Method in brief: (§1)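 Plants were sown into sterilized diluvial soil under about 1.5 cm cover and kept in a greenhouse at 25° C. to 30° C. Fourteen days on, foliage received an even spray of the diluted emulsion. Herbicidal or crop effect was judged three weeks afterwards.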
# rice flat sedge = assay: Test Example 3: herbicidal effect by foliage application, Wagner pot (Table 18, symbol E); assay type: in vivo, rice flat sedge (Cyperus iria); settings: amount of applied herbicide 320 g/ha
# Method in brief: (§2)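 Plants were sown in alluvial soil held under 0.1–0.5 cm standing water and grown 14 days in a greenhouse at 25–30 °C. An emulsifiable formulation, water-diluted to the set dose, was then sprayed onto the foliage, and effects were scored three weeks later using previously defined criteria.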
# Italian ryegrass [1] = assay: Test Example 4: herbicidal effect by soil treatment (Table 19, symbol K); assay type: in vivo, Italian ryegrass (Lolium multiflorum); settings: amount of applied herbicide 320 g/ha
# Method in brief: (§3)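 In this soil treatment, the formulated compound reached the seeds only through the soil: seeds were buried about 1.5 cm deep in sterilized diluvial soil, then the diluted emulsion was sprayed over the surface. After three weeks at 25° C. to 30° C. in a greenhouse, effects were graded on criteria from an earlier test.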
# Italian ryegrass [2] = assay: Test Example 5: herbicidal effect by foliage application, plastic box (Table 20, symbol K); assay type: in vivo, Italian ryegrass (Lolium multiflorum); settings: foliage application, AAH 320 g/ha, evaluated three weeks after application
# Method in brief: as §1
# green foxtail = assay: Test Example 5: herbicidal effect by foliage application, plastic box (Table 20, symbol G); assay type: in vivo, green foxtail (Setaria viridis); settings: foliage application, AAH 320 g/ha, evaluated three weeks after application
# Method in brief: as §1
# late watergrass [3] = assay: Test Example 2: herbicidal activity, application during weed generation under submerged conditions (Table 17, symbol A); assay type: in vivo, late watergrass (Echinochloa oryzicola); settings: AAH 320 g/ha; application during weed generation, submerged conditions
# Method in brief: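 Alluvial soil in Wagner pots was flooded to 4 cm depth and sown with the three weeds together; pots were kept in a greenhouse at 25° C. to 30° C. At the one to two leaf stage, an emulsion formulation diluted in water to a set rate went onto the water surface; scored three weeks later.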
# southern crabgrass = assay: Test Example 4: herbicidal effect by soil treatment (Table 19, symbol F); assay type: in vivo, southern crabgrass (Digitaria ciliaris); settings: amount of applied herbicide 320 g/ha
# Method in brief: as §3
# wild oat [4] = assay: Test Example 4: herbicidal effect by soil treatment (Table 19, symbol I); assay type: in vivo, wild oat (Avena fatua); settings: amount of applied herbicide 320 g/ha
# Method in brief: as §3
# chickweed = assay: Test Example 4: herbicidal effect by soil treatment (Table 19, symbol P); assay type: in vivo, common chickweed (Stellaria media); settings: amount of applied herbicide 320 g/ha
# Method in brief: as §3
# windgrass = assay: Test Example 4: herbicidal effect by soil treatment (Table 19, symbol L); assay type: in vivo, windgrass (Apera spica-venti); settings: amount of applied herbicide 320 g/ha
# Method in brief: as §3
# late watergrass [5] = assay: Test Example 1: herbicidal activity, application before weed generation under submerged conditions (Table 16, symbol A); assay type: in vivo, late watergrass (Echinochloa oryzicola); settings: 320 g/ha applied herbicide
# Method in brief: (§4)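 Submerged Wagner pots (alluvial soil, 4 cm water) sown with weed seeds and planted with 2.5-leaf rice seedlings; emulsifiable concentrate diluted in water applied to water surface on sowing day. Held in greenhouse at 25-30 °C; injury scored 0-5 by herbicidal rate after three weeks.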
# barnyard grass = assay: Test Example 5: herbicidal effect by foliage application, plastic box (Table 20, symbol H); assay type: in vivo, barnyard grass (Echinochloa crus-galli); settings: foliage application, AAH 320 g/ha, evaluated three weeks after application
# Method in brief: as §1
# blackgrass = assay: Test Example 5: herbicidal effect by foliage application, plastic box (Table 20, symbol J); assay type: in vivo, blackgrass (Alopecurus myosuroides); settings: foliage application, AAH 320 g/ha, evaluated three weeks after application
# Method in brief: as §1
# wild oat [6] = assay: Test Example 5: herbicidal effect by foliage application, plastic box (Table 20, symbol I); assay type: in vivo, wild oat (Avena fatua); settings: foliage application, AAH 320 g/ha, evaluated three weeks after application
# Method in brief: as §1
# lambsquarters = assay: Test Example 4: herbicidal effect by soil treatment (Table 19, symbol O); assay type: in vivo, lambsquarters (Chenopodium album); settings: amount of applied herbicide 320 g/ha
# Method in brief: as §3
# Japanese bulrush = assay: Test Example 1: herbicidal activity, application before weed generation under submerged conditions (Table 16, symbol B); assay type: in vivo, Japanese bulrush (Schoenoplectus juncoides); settings: 320 g/ha applied herbicide
# Method in brief: as §4
# Chinese sprangletop = assay: Test Example 3: herbicidal effect by foliage application, Wagner pot (Table 18, symbol D); assay type: in vivo, chinese sprangletop (Leptochloa chinensis); settings: amount of applied herbicide 320 g/ha
# Method in brief: as §2
SMILES,"M: velvetleaf, herbicidal effect (criteria 0-5) (velvetleaf)",herbicidal effect on E: rice flat sedge (rice flat sedge),herbicidal effect on K: Italian ryegrass (Italian ryegrass [1]),"K: Italian ryegrass, herbicidal effect (criteria 0-5) (Italian ryegrass [2])","G: green foxtail, herbicidal effect (criteria 0-5) (green foxtail)","herbicidal effect rating, A: late watergrass (late watergrass [3])",herbicidal effect on F: southern crabgrass (southern crabgrass),herbicidal effect on I: wild oat (wild oat [4]),herbicidal effect on P: chickweed (chickweed),herbicidal effect on L: windgrass (windgrass),Herbicidal effect on A: late watergrass (grade 0-5) (late watergrass [5]),"H: barnyard grass, herbicidal effect (criteria 0-5) (barnyard grass)","J: blackgrass, herbicidal effect (criteria 0-5) (blackgrass)","I: wild oat, herbicidal effect (criteria 0-5) (wild oat [6])",herbicidal effect on O: lambsquarters (lambsquarters),Herbicidal effect on B: Japanese bulrush (grade 0-5) (Japanese bulrush),herbicidal effect on D: Chinese sprangletop (Chinese sprangletop)
CC(=O)c1ccc(-c2sc3ccc(F)cc3c2-c2c(O)c(C)nn(C)c2=O)cc1 [2-339],5 (Herbicidal rate of 90% or more (almost completely withered)),4 (Herbicidal rate of 70% or more and less than 90%),4 (Herbicidal rate of 70% or more and less than 90%),5 (Herbicidal rate of 90% or more (almost completely withered)),4 (Herbicidal rate of 70% or more and less than 90%),3 (Herbicidal rate of 40% or more and less than 70%),0 (Herbicidal rate of 5% or less (almost no effect)),0 (Herbicidal rate of 5% or less (almost no effect)),3 (Herbicidal rate of 40% or more and less than 70%),2 (Herbicidal rate of 20% or more and less than 40%),4 (Herbicidal rate of 70% or more and less than 90%),3 (Herbicidal rate of 40% or more and less than 70%),1 (Herbicidal rate of 5% or more and less than 20%),3 (Herbicidal rate of 40% or more and less than 70%),4 (Herbicidal rate of 70% or more and less than 90%),5 (Herbicidal rate of 90% or more (almost completely withered)),4 (Herbicidal rate of 70% or more and less than 90%)
Cc1nn(C)c(=O)c(-c2c(-c3ccc([N+](=O)[O-])cc3)sc3ccc(F)cc23)c1O [2-341],5 (Herbicidal rate of 90% or more (almost completely withered)),3 (Herbicidal rate of 40% or more and less than 70%),5 (Herbicidal rate of 90% or more (almost completely withered)),5 (Herbicidal rate of 90% or more (almost completely withered)),5 (Herbicidal rate of 90% or more (almost completely withered)),3 (Herbicidal rate of 40% or more and less than 70%),5 (Herbicidal rate of 90% or more (almost completely withered)),3 (Herbicidal rate of 40% or more and less than 70%),4 (Herbicidal rate of 70% or more and less than 90%),1 (Herbicidal rate of 5% or more and less than 20%),3 (Herbicidal rate of 40% or more and less than 70%),4 (Herbicidal rate of 70% or more and less than 90%),4 (Herbicidal rate of 70% or more and less than 90%),4 (Herbicidal rate of 70% or more and less than 90%),4 (Herbicidal rate of 70% or more and less than 90%),4 (Herbicidal rate of 70% or more and less than 90%),3 (Herbicidal rate of 40% or more and less than 70%)
